One data set in a line: in vitro. As to conditions: African green monkey.
Data set [1] concerns P-388. The data set can be described thus: Cytotoxic activity IC50, P-388. The note with it: Mus musculus, P388, read-out: CYTOTOXIC ACTIVITIY IC50 (μM) P-388.
Data set [2] has as its system A-549. Briefly: Cytotoxic activity IC50, A-549. As to conditions: Homo sapiens, A549, read-out: CYTOTOXIC ACTIVITIY IC50 (μM) A-549, A-549.
The subject of data set [3] is HT-29. The data set can be described thus: Cytotoxic activity IC50, HT-29. As to conditions: Homo sapiens, HT-29, read-out: CYTOTOXIC ACTIVITIY IC50 (μM) HT-29, HT-29.
The subject of data set [4] is MEL-28. Briefly: Cytotoxic activity IC50, MEL-28. As to conditions: Homo sapiens, SK-MEL-28, read-out: CYTOTOXIC ACTIVITIY IC50 (μM) MEL-28, MEL-28.
Data set [5] relates to DU-145. Briefly: Cytotoxic activity IC50, DU-145. The note with it: Homo sapiens, DU-145, read-out: CYTOTOXIC ACTIVITIY IC50 (μM) DU-145, DU-145.
In data set [6] the test system is P-388.
Data set [7] concerns A-549.
Data set [8] concerns HT-29.
For data set [9], the system named is MEL-28.
In data set [10] the test system is DU-145.
Data set [11] has as its system HT-29. The data set can be described thus: Cytotoxic activity (M) panel, Colon HT-29. As to conditions: Homo sapiens, HT-29, read-out: CYTOTOXIC ACTIVITY (M) HT-29.
In a further data set the test system is 786-O. The data set can be described thus: Cytotoxic activity (M) panel, Renal 786-O. The note with it: Homo sapiens, 786-0, read-out: CYTOTOXIC ACTIVITY (M) 786-O.
In a further data set the test system is 5637. The data set can be described thus: Cytotoxic activity (M) panel, Bladder 5637. As to conditions: read-out: CYTOTOXIC ACTIVITY (M) 5637.
In the next data set the test system is PC3. Briefly: Cytotoxic activity (M) panel, Prostate PC3. As to conditions: Homo sapiens, PC-3, read-out: CYTOTOXIC ACTIVITY (M) PC3.
A further data set has as its system FADU. The data set can be described thus: Cytotoxic activity (M) panel, Pharnynx FADU. As to conditions: Homo sapiens, read-out: CYTOTOXIC ACTIVITY (M) FADU.
The subject of the next data set is Hs746t. Briefly: Cytotoxic activity (M) panel, Gastric Hs746t. As to conditions: Homo sapiens, read-out: CYTOTOXIC ACTIVITY (M) Hs746t.
The next data set concerns SK-HEP-1. Briefly: Cytotoxic activity (M) panel, Liver SK-HEP-1. The note with it: Homo sapiens, SK-HEP1, read-out: CYTOTOXIC ACTIVITY (M) SK-HEP-1.
Another data set deals with PANC-1. Briefly: Cytotoxic activity (M) panel, Pancreas PANC-1. The note with it: Homo sapiens, PANC-1, read-out: CYTOTOXIC ACTIVITY (M) PANC-1.
Data set [12] concerns MEL-28. The data set can be described thus: Cytotoxic activity (M) panel, Melanoma Mel-28. As to conditions: Homo sapiens, SK-MEL-28, read-out: CYTOTOXIC ACTIVITY (M) Mel-28.
The subject of the next data set is CHSA. The data set can be described thus: Cytotoxic activity (M) panel, Chondrosarcoma CHSA. The note with it: read-out: CYTOTOXIC ACTIVITY (M) CHSA.
A further data set has as its system OSA-FH. The data set can be described thus: Cytotoxic activity (M) panel, Osteosarcoma OSA-FH. The note with it: read-out: CYTOTOXIC ACTIVITY (M) OSA-FH.
In a further data set the test system is Molt 3. Briefly: Cytotoxic activity (M) panel, Acute lymphoblastic Molt 3. The note with it: Homo sapiens, MOLT-3, read-out: CYTOTOXIC ACTIVITY (M) Molt 3, leukemias & lymphomas, ALL Acute lymphoblastic, line Molt 3.
For a further data set, the system named is U-937. The data set can be described thus: Cytotoxic activity (M) panel, Lymphoma Histiocytic U-937. The note with it: Homo sapiens, U-937, read-out: CYTOTOXIC ACTIVITY (M) U-937.
For another data set, the system named is Hut 78. The data set can be described thus: Cytotoxic activity (M) panel, Lymphoma Cutaneus T cell Hut 78. The note with it: Homo sapiens, HuT78, read-out: CYTOTOXIC ACTIVITY (M) Hut 78, leukemias & lymphomas, Lymphoma Cutaneus T cell, line Hut 78.
The test system of the next data set is MC116. Briefly: Cytotoxic activity (M) panel, Lymphoma undifferentiated MC116. As to conditions: Homo sapiens, MC116, read-out: CYTOTOXIC ACTIVITY (M) MC116, leukemias & lymphomas, Lymphoma undifferentiated, line MC116.

Molecules are shown by their SMILES. Read-outs that look alike come from different tables or passages of the source. Where only a bound is given, the exact number is not on record here.

As for `COC1=C(C)C(=O)C2=C(C1=O)[C@H](CNC(=O)C(C)N)N1C(C2)[C@H]2c3c(cc(C)c(OC)c3O)C[C@@H]([C@@H]1C#N)N2C` (stereo partly drawn), the IC50 in the data set “in vitro” turned out to be 23 nM.
In the case of `C=CCOc1c(C)c2c(c3c1CC1[C@H]4c5c(cc(C)c(OC)c5O)C[C@@H]([C@H](C#N)N1[C@H]3CNC(=O)OCC(Cl)(Cl)Cl)N4C)OCO2` (stereo partly drawn), the IC50 in the data set “in vitro” came to 14 nM; in the data set on P-388 [1] it was 0.014 µM; in the data set with A-549 [2], 0.014 µM; in the data set with HT-29 [3], 0.014 µM; with MEL-28 [4], 0.014 µM.
On to `C=CCOc1c(C)c2c(c3c1CC1[C@H]4c5c(cc(C)c(OC)c5OCOC)C[C@@H]([C@H](C#N)N1[C@H]3CNC(=O)OCC(Cl)(Cl)Cl)N4C)OCO2` (stereo partly drawn), for which the IC50 in the data set “in vitro” stood at 130 nM; in the data set with P-388 [1], 0.13 µM; in the data set on A-549 [2], 0.13 µM; in the data set with HT-29 [3], 0.13 µM; in the data set on MEL-28 [4], 0.13 µM.
Turning to `C=CCOc1c(C)c2c(c3c1CC1[C@H]4c5c(cc(C)c(OC)c5OCOC)C[C@@H]([C@H](C#N)N1[C@H]3CN)N4C)OCO2` (stereo partly drawn), the IC50 in “in vitro” was 1800 nM; with A-549 [2] it was 1.8 µM; in the data set on HT-29 [3], 1.8 µM; with MEL-28 [4] it was 1.8 µM; in the data set on DU-145 [5], 1.8 µM.
`COc1c(C)cc2c(c1O)[C@@H]1C3Cc4c(O)c(C)c5c(c4[C@H](CN4C(=O)c6ccccc6C4=O)N3[C@@H](C#N)[C@H](C2)N1C)OCO5` (stereo partly drawn) displayed an IC50 in the data set “in vitro” of 1 nM.
Still for that read-out and setting: next, `COC1=C(C)C(=O)C2=C(C1=O)[C@H](CNC(=O)C(C)N=CSNc1ccccc1)N1C(C2)[C@H]2c3c(cc(C)c(OC)c3O)C[C@@H]([C@@H]1C#N)N2C` (stereo partly drawn): 18 nM.
For `COC1=C(C)C(=O)C2=C3C1=NCC3N1C(C2)[C@H]2c3c(cc(C)c(OC)c3O)C[C@@H]([C@@H]1C#N)N2C` (stereo partly drawn), the IC50 was determined as 2170 nM in the data set “in vitro”; 2.17 µM in the data set on P-388 [1]; 2.17 µM in the data set with A-549 [2]; 2.17 µM in the data set with HT-29 [3]; 2.17 µM in the data set with MEL-28 [4].
Regarding `COCOc1c(OC)c(C)cc2c1[C@@H]1C3CC4=C(C(=O)C(OC)=C(C)C4=O)[C@H](CNC(C)=O)N3[C@@H](C#N)[C@H](C2)N1C` (stereo partly drawn), the IC50 in “in vitro” turned out to be 220 nM; in the data set with P-388 [1] it was 0.22 µM; in the data set with A-549 [2], 0.22 µM; with HT-29 [3], 0.22 µM; in the data set with MEL-28 [4], 0.22 µM.
As to `COCOc1c(OC)c(C)cc2c1[C@@H]1C3CC4=C(C(=O)C(O)=C(C)C4=O)[C@H](CNC(C)=O)N3[C@@H](C#N)[C@H](C2)N1C` (stereo partly drawn), the IC50 in “in vitro” was more than 18100 nM.
Turning to `CCCCCC(=O)N[C@@H](C)C(=O)NC[C@H]1c2c(c(OC(C)=O)c(C)c3c2OCO3)CC2[C@H]3c4c(cc(C)c(OC)c4O)C[C@@H]([C@H](C#N)N21)N3C` (stereo partly drawn), the IC50 in the data set “in vitro” amounted to 1 nM; in the data set with P-388 [1], 0.001 µM; with A-549 [2], 0.001 µM; in the data set with HT-29 [3], 0.001 µM; with MEL-28 [4], 0.001 µM; with DU-145 [5] it was 0.001 µM.
For `CCCCCC(=O)N[C@@H](C)C(=O)NC[C@H]1c2c(c(OC(C)=O)c(C)c3c2OCO3)CC2[C@H]3c4c(cc(C)c(OC)c4O)C[C@@H]([C@H](O)N21)N3C` (stereo partly drawn), the IC50 in the data set “in vitro” stood at 1 nM; with P-388 [1] it was 0.001 µM; in the data set with A-549 [2] it was 0.001 µM; with HT-29 [3], 0.001 µM; with MEL-28 [4], 0.001 µM; with DU-145 [5], 0.001 µM.
On to `C=CCOc1c(C)c2c(c3c1CC1[C@H]4c5c(cc(C)c(OC)c5OCOC)C[C@@H]([C@H](C#N)N1[C@H]3COC(=O)CCc1ccccc1)N4C)OCO2` (stereo partly drawn), for which the IC50 amounted to 700 nM in the data set “in vitro”; 0.7 µM in the data set with P-388 [1]; 0.7 µM in the data set with A-549 [2]; 0.7 µM in the data set on HT-29 [3]; 0.7 µM in the data set with MEL-28 [4]; 0.7 µM with DU-145 [5].
For the molecule `COC1=C(C)C(=O)C2=C(C1=O)[C@H](CNC(=O)[C@H](C)NC(=O)C(F)(F)F)N1C(C2)[C@H]2c3c(cc(C)c(OC)c3O)C[C@@H]([C@@H]1C#N)N2C` (stereo partly drawn), the IC50 in the data set “in vitro” stood at 100 nM; in the data set on P-388 [1], 0.01 µM; in the data set with A-549 [2], 0.01 µM; with HT-29 [3] it was 0.01 µM; in the data set on MEL-28 [4] it was 0.01 µM; in the data set on DU-145 [5], 0.01 µM.
`CCCCCC(=O)NC[C@H]1c2c(c(OC(C)=O)c(C)c3c2OCO3)CC2[C@H]3c4c(cc(C)c(OC)c4O)C[C@@H]([C@H](C#N)N21)N3C` (stereo partly drawn) [drawing 120]: the IC50 in the data set with P-388 [6], in the data set with A-549 [7], in the data set with HT-29 [8], in the data set on MEL-28 [9], in the data set on DU-145 [10] and in the data set “in vitro” was 0.1 nM each time.
Take `CCCC(=O)OC[C@H]1c2c(c(OC(C)=O)c(C)c3c2OCO3)CC2[C@H]3c4c(cc(C)c(OC)c4O)C[C@@H]([C@H](O)N21)N3C` (stereo partly drawn) [drawing 156]: the IC50 in the data set with P-388 [6], in the data set with A-549 [7], in the data set with HT-29 [8], in the data set with MEL-28 [9] and in the data set on DU-145 [10] was 0.1 nM in each case.
`COc1c(C)cc2c(c1O)[C@@H]1C3Cc4c(OC(C)=O)c(C)c5c(c4[C@H](COC(=O)/C=C/c4cccc(C(F)(F)F)c4)N3[C@@H](O)[C@H](C2)N1C)OCO5` (stereo partly drawn) [drawing 157]: the IC50 with P-388 [6], with A-549 [7], in the data set with HT-29 [8], with MEL-28 [9] and in the data set with DU-145 [10] was 0.1 nM each time.
Turning to `COc1c(C)cc2c(c1O)[C@@H]1C3Cc4c(OC(C)=O)c(C)c5c(c4[C@H](COC(=O)CCc4ccccc4)N3[C@@H](O)[C@H](C2)N1C)OCO5` (stereo partly drawn) [drawing 158], the IC50 with P-388 [6], in the data set on A-549 [7], with HT-29 [8], in the data set with MEL-28 [9] and in the data set with DU-145 [10] was 0.1 nM in each case.
Turning to `COc1c(C)cc2c(c1O)[C@@H]1C3Cc4c(OC(C)=O)c(C)c5c(c4[C@H](CNC(=O)[C@H](C)NC(=O)CCc4ccccc4)N3[C@@H](O)[C@H](C2)N1C)OCO5` (stereo partly drawn) [drawing 215], the IC50 was determined as 7.43e-10 M with HT-29 [11]; 7.88e-10 M with 786-O; 1.65e-10 M with 5637; 8.13e-10 M in the data set with PC3; 8.41e-10 M in the data set with FADU; 9.35e-10 M in the data set on Hs746t. Also, the IC50 stood at 1.4e-09 M in the data set with SK-HEP-1; 8.93e-10 M with PANC-1; 1.08e-09 M in the data set on MEL-28 [12]; 1.08e-09 M with CHSA; 8.84e-10 M in the data set with OSA-FH.
Take `COc1c(C)cc2c(c1O)[C@@H]1C3Cc4c(OC(C)=O)c(C)c5c(c4[C@H](CNC(=O)/C=C/c4cccc(C(F)(F)F)c4)N3[C@@H](O)[C@H](C2)N1C)OCO5` (stereo partly drawn) [drawing 218]: the IC50 in the data set on Molt 3 amounted to 6.13e-10 M; in the data set on U-937 it was 1.77e-10 M; in the data set on Hut 78, 5.5e-11 M; in the data set on MC116, 2.15e-10 M.
`COc1c(C)cc2c(c1O)[C@@H]1C3Cc4c(OC(C)=O)c(C)c5c(c4[C@H](CNC(=O)[C@H](C)NC(=O)C(F)(F)F)N3[C@@H](O)[C@H](C2)N1C)OCO5` (stereo partly drawn) [drawing 219]: the IC50 in the data set on Molt 3 turned out to be 2.8e-09 M; in the data set on U-937, 5.27e-11 M; in the data set on Hut 78 it was 2.57e-10 M; in the data set with MC116, 2.65e-10 M.

The values above are taken from patent US8012975B2, “Antitumoral analogs of ET-743” (Pharma Mar, S.A., priority 2000, dated 2011).
